Patent US20110059947A1, “ALPHA 7 NICOTINIC AGONISTS AND ANTIPSYCHOTICS” (Targacept, Inc., priority 2008, published 2011)

Key:
[1] = test system: th(tk-)/th(tk-) mice; assay: Prepulse inhibition (PPI) and acoustic startle in th(tk-)/th(tk-) and control mice; format: in vivo
[2] = test system: db/db mice; assay: Plasma glucose and body weight in obese db/db mice; format: in vivo; settings: 1 mg/kg
[3] = test system: th(tk-)/th(tk-) mice; assay: Social behavior, nonsocial autogrooming and open field activity; format: in vivo; settings: 1 mg/kg i.p.
Method: B. […] On testing days, each subject received three tests: a social behavior test with a female, a social behavior test with a male, and an open-field test. There was a 30-minute interval between each test. Social behavior was tested using a variant of the resident-intruder paradigm, in which a stimulus animal was introduced into the subject's homecage for three minutes. Prior to testing the subjects' home cages were not changed for at least four days to allow them to establish the cage as their territory. Female stimulus animals were singly-housed, randomly cycling C57BI/6Js (Jackson Laboratories, Bar Harbor, Me.). Each subject was tested with a different stimulus animal and each stimulus animal was used only once per testing day. Male stimulus animals were singly-housed C57BI/6Js (Jackson Laboratories, Bar Harbor, Me.). Each subject was tested with a different stimulus animal and each stimulus animal was used only once per testing day. A stimulus female was placed into the cage of wild-type (n=8) and tk-/- (n=8) subjects. After three minutes, the stimulus female was removed. Thirty minutes later a stimulus male was placed into the subject's homecage. […] The behavior of the subject was quantified from the videotape using the Observer Mobile (Noldus Information Technologies, Sterling, Va.). […] Movement was analyzed in detail using the Clever Sys. […]

[4] = test system: Sprague-Dawley rats; assay: Apomorphine-induced impairment of pre-pulse inhibition; format: in vivo, rat; settings: haloperidol 0.3 mg/kg i.p., apomorphine 1.0 mg/kg s.c., p<0.001
[5] = db/db mice with fat diet, vs vehicle-treated mice

`Cc1ccc(C(=O)N[C@@H]2C3CCN(CC3)[C@H]2Cc2cccnc2)s1` [Compound B, (2S,3R)—N-(2-((3-pyridinyl)methyl)-1-azabicyclo[2.2.2]oct-3-yl)-5-methylthiophene-2-carboxamide] was tested, and the “sensory gating (PPI and acoustic startle response)” value ([1]; control (normal) mice, Compound B) was “no effect on control”, the “deficits in sensory gating (PPI and acoustic startle response)” value ([1]; th(tk-)/th(tk-) mice, Compound B (0.1 and 1.0 mg/kg analyzed)) was “reverse deficits in sensory gating” and the blood glucose levels [2, 5] was “significantly decreases”. For the same molecule, the body weight gain [2, 5] was “significantly decreases” and the “time at which effects on glucose and weight gain become apparent” value ([2]; db/db mice, weeks of treatment) was 6 weeks.

With `COc1cccc([C@H](O)C2CCN(CCc3ccc(F)cc3)CC2)c1OC` [Compound M100907] the PPI ([1]; control mice, M100907 any dose) was “no effect at any dose”, the startle response ([1]; control mice, M100907 any dose) was “no effect at any dose” and the PPI ([1]; transgenic mice, M100907 middle (0.1 mg/kg) and high (1 mg/kg) doses vs vehicle) was “increases of PPI”. The startle response ([1]; treated transgenic groups vs vehicle, M100907) was “significant decrease of startle response”, the “time spent investigating the stimulus animal” value ([3]; TK- mice) was “significantly increased” and the “investigation time of stimulus animal” value ([3]; wild-type animals) was “no effect on investigation time”.

With `CN1CCN(C2=Nc3cc(Cl)ccc3Nc3ccccc32)CC1` [clozapine] the PPI ([1]; clozapine 3 mg/kg) was “no effect” and the startle response ([1]; clozapine 3 mg/kg) was “no effect”.

In the case of `OCCN1CCN(CC/C=C2/c3ccccc3Sc3ccc(C(F)(F)F)cc32)CC1` [flupenthixol], the startle response ([1]; control mice, flupenthixol 1.0 mg/kg vs saline) is reported as “decreased”, the PPI ([1]; control mice, flupenthixol 0.25, 0.5, 1.0 mg/kg) is reported as “no effect of dose” and the startle response ([1]; th(tk-)/th(tk-) mice, flupenthixol 1.0 mg/kg vs saline) is reported as “decreased”. For the same molecule, the PPI ([1]; th(tk-)/th(tk-) mice, flupenthixol 0.25, 0.5, 1.0 mg/kg, all three stimulus intensities, P<0.01) was “increased PPI”.

In the case of `O=C(CCCN1CCC(O)(c2ccc(Cl)cc2)CC1)c1ccc(F)cc1` [haloperidol, reference compound], the “PPI deficits induced by apomorphine” value [4] is reported as “significantly reversed”.

For `OCCOCCN1CCN(C2=Nc3ccccc3Sc3ccccc32)CC1` [quetiapine], the startle response ([1]; control mice, quetiapine any dose) was “no main effect”, the PPI ([1]; control mice, quetiapine any dose examined) was “no significant main effect” and the PPI ([1]; th(tk-)/th(tk-) mice, quetiapine 7.0 mg/kg, p<0.001) was “normalized the reduced PPI”. For the same molecule, the PPI ([1]; th(tk-)/th(tk-) mice, quetiapine lower doses (below 7.0 mg/kg)) was “no effect”, the startle response ([1]; transgenic mice, all doses of quetiapine vs saline, p<0.05) was “significant decrease in startle response” and the “PPI, main effect” value ([1]; transgenic th(tk-)/th(tk-) mice, quetiapine 3.0 mg/kg alone) was “no significant main effect”.
